Laboratory results as given in patent US9120770B2, “Substituted pyridine and pyrazine compounds as PDE4 inhibitors” (DART NEUROSCIENCE (CAYMAN) LTD., priority 2013, dated 2015).
pEC50: −log10 of the molar value.

Each compound was assayed against PDE4D3 (Homo sapiens, UniProt Q08499).
PDE4D3, sequence (Q08499 1-673 isoform Q08499-2): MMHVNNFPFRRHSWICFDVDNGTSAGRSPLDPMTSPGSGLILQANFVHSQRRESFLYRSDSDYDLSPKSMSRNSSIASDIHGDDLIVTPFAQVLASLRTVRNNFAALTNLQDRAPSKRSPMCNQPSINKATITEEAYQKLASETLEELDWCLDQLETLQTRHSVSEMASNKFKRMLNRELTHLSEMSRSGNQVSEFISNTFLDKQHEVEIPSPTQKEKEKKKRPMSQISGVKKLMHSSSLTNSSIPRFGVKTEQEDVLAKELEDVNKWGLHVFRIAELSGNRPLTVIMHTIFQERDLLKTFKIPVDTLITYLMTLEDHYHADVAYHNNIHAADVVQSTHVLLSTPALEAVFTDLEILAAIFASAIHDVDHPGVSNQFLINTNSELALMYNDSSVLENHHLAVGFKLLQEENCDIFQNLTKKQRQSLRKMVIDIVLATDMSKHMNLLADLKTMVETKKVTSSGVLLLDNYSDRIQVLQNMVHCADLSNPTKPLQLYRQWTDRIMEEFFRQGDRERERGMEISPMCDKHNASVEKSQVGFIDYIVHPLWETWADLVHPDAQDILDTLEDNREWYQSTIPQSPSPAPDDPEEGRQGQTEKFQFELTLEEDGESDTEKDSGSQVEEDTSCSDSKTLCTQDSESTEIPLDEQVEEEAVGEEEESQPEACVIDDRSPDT
`COc1ncc(Cn2cc([N+](=O)[O-])cn2)cc1-c1cccc(Cl)c1` [Example 180, 3-(3-Chlorophenyl)-2-methoxy-5-[(4-nitro-1H-pyrazol-1-yl)methyl]pyridine] gave a pEC50 of 6.00 to 7.00.
`COc1ncc(Cn2cc([N+](=O)[O-])cn2)nc1-c1cccc(Cl)c1` [Example 181, 3-(3-Chlorophenyl)-2-methoxy-5-[(4-nitro-1H-pyrazol-1-yl)methyl]pyrazine] showed a pEC50 of 5.00 to 6.00.
`COc1ncc(Cn2cccn2)nc1-c1cccc(Cl)c1` [Example 182, 3-(3-Chlorophenyl)-2-methoxy-5-(1H-pyrazol-1-ylmethyl)pyrazine] showed a pEC50 of 5.00 to 6.00.
With `COc1ncc(Cn2ccnc2)nc1-c1cccc(Cl)c1` [Example 183, 3-(3-Chlorophenyl)-5-(1H-imidazol-1-ylmethyl)-2-methoxypyrazine] the pEC50 was greater than 7.00.
Work on `COc1ncc(Cn2cc(C)cn2)nc1-c1cccc(Cl)c1` [Example 184, 3-(3-Chlorophenyl)-2-methoxy-5-[(4-methyl-1H-pyrazol-1-yl)methyl]pyrazine] yielded a pEC50 of 5.00 to 6.00.
`CCOc1ncc(Cn2cnc(C)n2)nc1-c1cccc(OC(F)F)c1` [Example 185, 3-[3-(Difluoromethoxy)phenyl]-2-ethoxy-5-[(3-methyl-1H-1,2,4-triazol-1-yl)methyl]pyrazine] was tested, and the pEC50 was greater than 7.00.
`CCOc1ncc(Cn2cnc(C3CC3)n2)nc1-c1cccc(OC(F)F)c1` [Example 186, 5-[(3-Cyclopropyl-1H-1,2,4-triazol-1-yl)methyl]-3-[3-(difluoromethoxy)phenyl]-2-ethoxypyrazine] showed a pEC50 of 5.00 to 6.00.
`CCOc1ncc(Cn2cnc(C(F)(F)F)n2)nc1-c1cccc(OC(F)F)c1` [Example 187, 3-[3-(Difluoromethoxy)phenyl]-2-ethoxy-5-{[3-(trifluoromethyl)-1H-1,2,4-triazol-1-yl]methyl}pyrazine] gave a pEC50 of 5.00 to 6.00.
`CCOc1ncc(Cn2ncnc2C(F)(F)F)nc1-c1cccc(OC(F)F)c1` [Example 188, 3-[3-(Difluoromethoxy)phenyl]-2-ethoxy-5-{[5-(trifluoromethyl)-1H-1,2,4-triazol-1-yl]methyl}pyrazine] showed a pEC50 of 6.00 to 7.00.
`CCOc1ncc(Cn2cnc(COC)n2)nc1-c1cccc(OC(F)F)c1` [Example 189, 3-[3-(Difluoromethoxy)phenyl]-2-ethoxy-5-{[3-(methoxymethyl)-1H-1,2,4-triazol-1-yl]methyl}pyrazine] gave a pEC50 of 6.00 to 7.00.
`CCOc1ncc(Cn2ncnc2COC)nc1-c1cccc(OC(F)F)c1` [Example 190, 3-[3-(Difluoromethoxy)phenyl]-2-ethoxy-5-{[5-(methoxymethyl)-1H-1,2,4-triazol-1-yl]methyl}pyrazine] was tested, and the pEC50 was 5.00 to 6.00.
With `CCOc1ncc(Cn2cnc(C(=O)OC)n2)nc1-c1cccc(OC(F)F)c1` [Example 191, Methyl 1-((6-(3-(difluoromethoxy)phenyl)-5-ethoxypyrazin-2-yl)methyl)-1H-1,2,4-triazole-3-carboxylate] the pEC50 was 6.00 to 7.00.
`CCOc1ncc(Cn2ncnc2C(=O)OC)nc1-c1cccc(OC(F)F)c1` [Example 192, Methyl 1-((6-(3-(difluoromethoxy)phenyl)-5-ethoxypyrazin-2-yl)methyl)-1H-1,2,4-triazole-5-carboxylate] showed a pEC50 of 5.00 to 6.00.
`CCOc1ncc(Cn2cnc([N+](=O)[O-])n2)nc1-c1cccc(OC(F)F)c1` [Example 193, 3-(3-(Difluoromethoxy)phenyl)-2-ethoxy-5-((3-nitro-1H-1,2,4-triazol-1-yl)methyl)pyrazine] was tested, and the pEC50 was 5.00 to 6.00.
For `CCOc1ncc(Cn2ncnc2[N+](=O)[O-])nc1-c1cccc(OC(F)F)c1` [Example 194, 3-(3-(Difluoromethoxy)phenyl)-2-ethoxy-5-((5-nitro-1H-1,2,4-triazol-1-yl)methyl)pyrazine], the pEC50 was 5.00 to 6.00.
Compound `COC(=O)c1ncnn1Cc1cnc(OC)c(-c2cccc(Cl)c2)n1` [Example 195, Methyl 1-{[6-(3-chlorophenyl)-5-methoxypyrazin-2-yl]methyl}-1H-1,2,4-triazole-5-carboxylate] has a pEC50 of 5.00 to 6.00.
In the case of `COC(=O)c1ncn(Cc2cnc(OC)c(-c3cccc(OC(F)F)c3)n2)n1` [Example 196, Methyl 1-({6-[3-(difluoromethoxy)phenyl]-5-methoxypyrazin-2-yl}methyl)-1H-1,2,4-triazole-3-carboxylate], the pEC50 was 5.00 to 6.00.
With `CCOc1ncc(Cn2cnc(C(=O)OC)n2)nc1-c1cccc(Cl)c1` [Example 197, Methyl 1-{[6-(3-chlorophenyl)-5-ethoxypyrazin-2-yl]methyl}-1H-1,2,4-triazole-3-carboxylate] the pEC50 was 5.00 to 6.00.
Compound `NC(=O)c1cn(Cc2cnc(OC(F)F)c(-c3cccc(Cl)c3)c2)cn1` [Example 198, 1-{[5-(3-Chlorophenyl)-6-(difluoromethoxy)pyridin-3-yl]methyl}-1H-imidazole-4-carboxamide] has a pEC50 of 5.00 to 6.00.
With `COc1ncc(Cn2cnc(CO)n2)nc1-c1cccc(Cl)c1` [Example 199, (1-{[6-(3-Chlorophenyl)-5-methoxypyrazin-2-yl]methyl}-1H-1,2,4-triazol-3-yl)methanol] the pEC50 was 5.00 to 6.00.
Work on `OCc1ncn(Cc2cnc(OC(F)F)c(-c3cccc(Cl)c3)c2)n1` [Example 200, (1-{[5-(3-Chlorophenyl)-6-(difluoromethoxy)pyridin-3-yl]methyl}-1H-1,2,4-triazol-3-yl)methanol] yielded a pEC50 of 6.00 to 7.00.
With `CCOc1ncc(Cn2cnc(CO)n2)cc1-c1cccc(OC(F)F)c1` [Example 201, [1-({5-[3-(Difluoromethoxy)phenyl]-6-ethoxypyridin-3-yl}methyl)-1H-1,2,4-triazol-3-yl]methanol] the pEC50 was greater than 7.00.
In the case of `COc1ncc(Cn2cnc(CO)n2)cc1-c1cccc(OC(F)F)c1` [Example 202, [1-({5-[3-(Difluoromethoxy)phenyl]-6-methoxypyridin-3-yl}methyl)-1H-1,2,4-triazol-3-yl]methanol], the pEC50 was greater than 7.00.
With `CCOc1ncc(Cn2cnc(CO)n2)cc1-c1cccc(Cl)c1` [Example 203, (1-((5-(3-Chlorophenyl)-6-ethoxypyridin-3-yl)methyl)-1H-1,2,4-triazol-3-yl)methanol] the pEC50 was greater than 7.00.
For `CCOc1cccc(-c2cc(Cn3cnc(CO)n3)cnc2OC(F)F)c1` [Example 204, (1-{[6-(Difluoromethoxy)-5-(3-ethoxyphenyl)pyridin-3-yl]methyl}-1H-1,2,4-triazol-3-yl)methanol], the pEC50 was greater than 7.00.
Compound `COc1ncc(Cn2cnc(CO)n2)cc1-c1ccnc(OC(F)F)c1` [Example 205, [1-({5-[2-(Difluoromethoxy)pyridin-4-yl]-6-methoxypyridin-3-yl}methyl)-1H-1,2,4-triazol-3-yl]methanol] has a pEC50 greater than 7.00.
For `CCOc1ncc(Cn2cnc(CO)n2)cc1-c1ccnc(OC(F)F)c1` [Example 206, [1-({5-[2-(Difluoromethoxy)pyridin-4-yl]-6-ethoxypyridin-3-yl}methyl)-1H-1,2,4-triazol-3-yl]methanol], the pEC50 was greater than 7.00.
`OCc1ncn(Cc2cnc(OC(F)F)c(-c3ccnc(OC(F)F)c3)c2)n1` [Example 207, (1-{[6-(Difluoromethoxy)-5-[2-(difluoromethoxy)pyridin-4-yl]pyridin-3-yl]methyl}-1H-1,2,4-triazol-3-yl)methanol] gave a pEC50 of 6.00 to 7.00.
In the case of `CCOc1ncc(Cn2cnc(CO)n2)nc1-c1cccc(OC(F)F)c1` [Example 208, [1-({6-[3-(Difluoromethoxy)phenyl]-5-ethoxypyrazin-2-yl}methyl)-1H-1,2,4-triazol-3-yl]methanol], the pEC50 was 6.00 to 7.00.
